Among the data in patent US6653300B2, “Pyrazole compounds useful as protein kinase inhibitors” (Vertex Pharmaceuticals Incorporated, priority 2000, dated 2003) are Ki and melting point values, retold here.

The first data set deals with T1, GSK-3β (AA 1-420) (Homo sapiens, UniProt P49841).
T1 construct: GSK-3β (AA 1-420)
T1 sequence (P49841 whole entry, the tested form may be a part): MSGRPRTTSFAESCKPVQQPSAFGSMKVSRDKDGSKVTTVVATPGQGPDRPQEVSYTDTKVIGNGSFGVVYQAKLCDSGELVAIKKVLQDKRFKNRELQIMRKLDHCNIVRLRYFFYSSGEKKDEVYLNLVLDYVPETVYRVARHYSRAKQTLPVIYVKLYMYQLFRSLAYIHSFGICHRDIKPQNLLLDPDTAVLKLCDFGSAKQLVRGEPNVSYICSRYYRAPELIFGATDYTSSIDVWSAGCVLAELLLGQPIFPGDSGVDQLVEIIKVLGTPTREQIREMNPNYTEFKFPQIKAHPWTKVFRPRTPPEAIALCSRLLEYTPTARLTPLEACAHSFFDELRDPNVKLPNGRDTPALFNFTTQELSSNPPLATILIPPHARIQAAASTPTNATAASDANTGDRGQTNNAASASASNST
In words: Ki determination for the inhibition of GSK-3 (coupled enzyme system). It is filed as biochemical. Conditions: 20 μM ATP, 20 nM GSK-3β, 30° C. Here is the method: Compounds were screened for their ability to inhibit GSK-3β (AA 1-420) activity using a standard coupled enzyme system (Fox et al. (1998) Protein Sci. 7, 2249). Reactions were carried out in a solution containing 100 mM HEPES (pH 7.5), 10 mM MgCl2, 25 mM NaCl, 300 μM NADH, 1 mM DTT and 1.5% DMSO. Final substrate concentrations in the assay were 20 μM ATP (Sigma Chemicals, St Louis, Mo.) and 300 μM peptide (HSSPHQS (PO3H2) EDEEE, American Peptide, Sunnyvale, Calif.). Reactions were carried out at 30° C. and 20 nM GSK-3β. Final concentrations of the components of the coupled enzyme system were 2.5 mM phosphoenolpyruvate, 300 μM NADH, 30 μg/ml pyruvate kinase and 10 μg/ml lactate dehydrogenase.
An assay stock buffer solution was prepared containing all of the reagents listed above with the exception of ATP and the test compound of interest. The assay stock buffer solution (175 μl) was incubated in a 96 well plate with 5 μl of the test compound of interest at final concentrations spanning 0.002 μM to 30 μM at 30° C. for 10 min. […] The reaction was initiated by the addition of 20 μl of ATP (final concentration 20 μM). Rates of reaction were obtained using a Molecular Devices Spectramax plate reader (Sunnyvale, Calif.) over 10 min at 30° C. The Ki values were determined from the rate data as a function of inhibitor concentration.
With `CC(=O)Nc1ccc(Sc2nc(Nc3cc(C)[nH]n3)cc(-c3ccccc3)n2)cc1` [IIIa-11, [2-(4-Acetamido-phenylsulfanyl)-6-phenyl-pyrimidin-4-yl]-(5-methyl-2H-pyrazol-3-yl)-amine], the Ki was 0.1 to 1 µM.
`CCC(=O)Nc1ccc(Sc2nc(Nc3cc(C)[nH]n3)cc(-c3ccccc3)n2)cc1` [IIIa-15, (5-Methyl-2H-pyrazol-3-yl)-[6-phenyl-2-(4-propionylamino-phenylsulfanyl)-pyrimidin-4-yl]-amine] returned a Ki of 1 to 7 µM.
Still for that read-out and setting: in the case of `Cc1cc(Nc2cc(N3CCN(C)CC3)nc(SCc3ccccc3)n2)n[nH]1` [IIIa-28, [2-Benzylsulfanyl-6-(4-methylpiperazin-1-yl)-pyrimidin-4-yl]-(5-methyl-2H-pyrazol-3-yl)-amine] it was 1 to 7 µM; in that of `Cc1cc(Nc2cc(N3CCOCC3)nc(SCc3ccccc3)n2)n[nH]1` [IIIa-29, [2-Benzylsulfanyl-6-morpholin-4-yl-pyrimidin-4-yl]-(5-methyl-2H-pyrazol-3-yl)-amine], 0.1 to 1 µM; in that of `Cc1cc(Nc2cc(N3CCN(C)CC3)nc(SCc3cccc(Cl)c3)n2)n[nH]1` [IIIa-30, [2-(3-Chloro-benzylsulfanyl)-6-(4-methylpiperazin-1-yl)-pyrimidin-4-yl]-(5-methyl-2H-pyrazol-3-yl)-amine], 0.1 to 1 µM.
Same read-out and setting: the value for `COc1ccc(CSc2nc(Nc3cc(C)[nH]n3)cc(N3CCN(C)CC3)n2)cc1` [IIIa-31, [2-(4-methoxy-benzylsulfanyl)-6-(4-methylpiperazin-1-yl)-pyrimidin-4-yl]-(5-methyl-2H-pyrazol-3-yl)-amine] was 0.1 to 1 µM; that for `Cc1cc(Nc2cc(N3CCOCC3)nc(SCc3ccc(S(=O)(=O)N4CCOCC4)cc3)n2)n[nH]1` [IIIa-35, (5-Methyl-2H-pyrazol-3-yl)-{2-[4-(morpholinesulfonyl)-benzylsulfanyl]-6-morpholin-4-yl-pyrimidin-4-yl}-amine] was 1 to 7 µM; that for `CCC(=O)Nc1ccc(Sc2nc(COC)cc(Nc3cc(C)[nH]n3)n2)cc1` [IIIa-38, [6-Methoxymethyl-2-(4-propionylamino-phenyl-sulfanyl)-pyrimidin-4-yl]-(5-methyl-2H-pyrazol-3-yl)-amine] was 1 to 7 µM.
Still for that read-out and setting: the value for `COc1cc(CSc2nc(Nc3cc(C)[nH]n3)cc(N3CCCC3)n2)cc(OC)c1` [IIIa-41, [2-(3,5-Dimethoxy-benzylsulfanyl)-6-pyrrolidin-4-yl-pyrimidin-4-yl]-(5-methyl-2H-pyrazol-3-yl)-amine] was 1 to 7 µM.
As for `CCC(=O)Nc1ccc(Sc2nc(CO)cc(Nc3cc(C)n[nH]3)n2)cc1` [IIIa-45, [6-Hydroxymethyl-2-(4-propionylamino-phenyl-sulfanyl)-pyrimidin-4-yl]-(5-methyl-2H-pyrazol-3-yl)-amine], the inhibition constant (Ki) was in the range of 1 to 7 µM.
Compound `CNC(=O)c1cc(Nc2cc(C)[nH]n2)nc(Sc2ccc(NC(C)=O)cc2)n1` [IIIa-49] showed a Ki of 1 to 7 µM.
On the same count and under the same terms, the value for `CC(=O)Nc1ccc(Oc2nc(Nc3cc(C)[nH]n3)cc(-c3ccccc3)n2)cc1` [IIIb-11] was 0.1 to 1 µM.
On the same count and under the same terms, in the case of `Cc1cc(Nc2cc(-c3ccccc3)nc(Oc3ccc4ccccc4c3)n2)n[nH]1` [IIIb-12] it was 0.1 to 1 µM; in that of `Cc1cc(Nc2cc(-c3ccccc3)nc(Oc3ccc(NC(=O)C(C)C)cc3)n2)n[nH]1` [IIIb-13], below 0.1 µM.
For `Cc1cc(Nc2cc(-c3ccccc3)nc(Nc3ccccc3)n2)n[nH]1` [IIIc-1, (5-Methyl-2H-pyrazol-3-yl)-(6-phenyl-2-phenylamino-pyrimidin-4-yl)-amine], the Ki was 0.1 to 1 µM.
The same measure, in the same setting: the value for `COc1cc(-c2cc(Nc3cc(C)[nH]n3)nc(Nc3ccc(S(N)(=O)=O)cc3)n2)cc(OC)c1OC` [IIIc-8, (5-Methyl-2H-pyrazol-3-yl)-[2-(4-sulfamoylphenylamino)-6-(3,4,5-trimethoxyphenyl)-pyrimidin-4-yl]-amine] was 0.1 to 1 µM.
On the same count and under the same terms, the value for `Cc1cc(Nc2cc(-c3ccccc3)[nH]n2)nc(Nc2nc3ccccc3[nH]2)n1` [IIIc-16, [2-(Benzimidazol-2-ylamino)-6-methyl-pyrimidin-4-yl]-(5-phenyl-2H-pyrazol-3-yl)-amine] was 1 to 7 µM.
On the same count and under the same terms, in the case of `Cc1cc(Nc2cc(-c3ccco3)[nH]n2)nc(Nc2nc3ccccc3[nH]2)n1` [IIIc-17, [2-(Benzimidazol-2-ylamino)-6-methyl-pyrimidin-4-yl]-[5-(Furan-2-yl)-2H-pyrazol-3-yl]-amine] it was 1 to 7 µM; in that of `Cc1cc(Nc2cc(C)[nH]n2)nc(Nc2ccc(Cl)cc2)n1` [IIIc-18, [2-(4-Chlorophenylamino)-6-methyl-pyrimidin-4-yl]-(5-methyl-2H-pyrazol-3-yl)-amine], below 0.1 µM.
`Cc1cc(Nc2nc(Nc3ccc(Cl)cc3)nc(C)c2C)n[nH]1` [IIIc-19, [2-(4-Chlorophenyl)amino-5,6-dimethyl-pyrimidin-4-yl]-(5-methyl-2H-pyrazol-3-yl)-amine] gave a Ki below 0.1 µM.
Still for that read-out and setting: the value for `Cc1cc(Nc2nc(Nc3ccccc3)nc(C)c2C)n[nH]1` [IIIc-20, (5,6-Dimethyl-2-phenylamino-pyrimidin-4-yl)-(5-methyl-2H-pyrazol-3-yl)-amine] was 0.1 to 1 µM; that for `COCc1cc(Nc2cc(C)[nH]n2)nc(Nc2ccc(Cl)cc2)n1` [IIIc-21, [2-(4-Chlorophenyl)amino-6-methoxymethyl-pyrimidin-4-yl]-(5-methyl-2H-pyrazol-3-yl)-amine] was below 0.1 µM.
Same read-out and setting: in the case of `COCc1cc(Nc2cc(C)[nH]n2)nc(Nc2nc3ccccc3[nH]2)n1` [IIIc-22, [2-(Benzimidazol-2-ylamino)-6-methoxymethyl-pyrimidin-4-yl]-(5-methyl-2H-pyrazol-3-yl)-amine] it was 1 to 7 µM; in that of `COCc1cc(Nc2cc(C)[nH]n2)nc(Nc2ccccc2)n1` [IIIc-23, (6-Methoxymethyl-2-phenylamino-pyrimidin-4-yl)-(5-methyl-2H-pyrazol-3-yl)-amine], 0.1 to 1 µM.
The same measure, in the same setting: the value for `Cc1cc(Nc2cc(C)[nH]n2)nc(Nc2ccccc2)n1` [IIIc-24, (6-Methyl-2-phenylamino-pyrimidin-4-yl)-(5-methyl-2H-pyrazol-3-yl)-amine] was below 0.1 µM.
Take `Cc1cc(Nc2cc(C)[nH]n2)nc(C(C)(C)c2ccccc2)n1` [IIId-21]: the inhibitory constant (Ki) was below 0.1 µM.
As to `Cc1cc(Nc2nc(Nc3ccccc3)nc3c2CCCC3)n[nH]1` [IIc-45, (5-Methyl-2H-pyrazol-3-yl)-(2-phenylamino-5,6,7,8-tetrahydroquinazolinin-4-yl)-amine], the Ki was 0.1 to 1 µM.
Still for that read-out and setting: the value for `c1ccc(Nc2nc(Nc3n[nH]c4ccccc34)c3ccccc3n2)cc1` [IIc-70, (1H-Indazol-3-yl)-(2-phenylamino-quinazolin-4-yl)-amine] was 1 to 7 µM.
The same measure, in the same setting: in the case of `FC(F)(F)c1ccc(Nc2nc(Nc3n[nH]c4ccccc34)c3ccccc3n2)cc1` [IIc-72, (1H-Indazol-3-yl)-[2-(4-trifluoromethylphenylamino)-quinazolin-4-yl]-amine] it was 0.1 to 1 µM; in that of `N#CCc1ccc(Nc2nc(Nc3n[nH]c4ccccc34)c3ccccc3n2)cc1` [IIc-77, [2-(4-Cyanomethylphenylamino)-quinazolin-4-yl]-(1H-indazol-3-yl)-amine], below 0.1 µM.
Still for that read-out and setting: in the case of `Cc1cc(Nc2nc(Nc3ccc(Cl)cc3)nc3c2CCCC3)n[nH]1` [IIc-78, [2-(4-Chlorophenylamino)-5,6,7,8-tetrahydroquinazolinin-4-yl]-(5-methyl-2H-pyrazol-3-yl)-amine] it was below 0.1 µM.
Consider `Cc1cc(Nc2nc(Nc3ccccc3)nc3c2CCCCC3)n[nH]1` [IIc-79, (5-Methyl-2H-pyrazol-3-yl)-(2-phenylamino-6,7,8,9-tetrahydro-5H-cycloheptapyrimidin-4-yl)-amine], for which the Ki lay within 0.1 to 1 µM.
The same measure, in the same setting: the value for `Cc1cc(Nc2nc(C(C)(C)c3ccccc3)nc3c2CCCCC3)n[nH]1` [IId-14] was below 0.1 µM; that for `c1ccc(C2CC2c2nc(Nc3n[nH]c4ccccc34)c3ccccc3n2)cc1` (centres unmarked) [IId-16, (1H-Indazol-3-yl)-[2-(2-phenyl-cyclopropyl)-quinazolin-4-yl]-amine] was 0.1 to 1 µM; that for `Fc1cccc2c(Nc3nc(C4CC4c4ccccc4)nc4ccccc34)n[nH]c12` (centres unmarked) [IId-17, (7-Fluoro-1H-indazol-3-yl)-[2-(2-phenyl-cyclopropyl)-quinazolin-4-yl]-amine] was 0.1 to 1 µM.
Same read-out and setting: the value for `Fc1ccc2[nH]nc(Nc3nc(C4CC4c4ccccc4)nc4ccccc34)c2c1` (centres unmarked) [IId-18, (5-Fluoro-1H-indazol-3-yl)-[2-(2-phenyl-cyclopropyl)-quinazolin-4-yl]-amine] was 0.1 to 1 µM; that for `Cc1cc(Nc2nc(C3CC3c3ccccc3)nc3ccccc23)n[nH]1` (centres unmarked) [IId-19, (5-Methyl-1H-pyrazol-3-yl)-[2-(2-phenyl-cyclopropyl)-quinazolin-4-yl]-amine] was below 0.1 µM.

Test system in the next data set: not given
Assay: not given
Details: not given
The compound `Cc1cc(Nc2cc(-c3c(C)cccc3C)nc(Sc3ccc4ccccc4c3)n2)n[nH]1` [IIIa-9, [6-(2,6-Dimethylphenyl)-2-(naphthalen-2-ylsulfanyl)-pyrimidin-4-yl]-(5-methyl-2H-pyrazol-3-yl)-amine] returned a melting point of 148 to 152 °C.
